Here are results for eight compounds from ChEMBL document CHEMBL5543173, “Discovery of a New Anti-Inflammatory Agent from Anemoside B4 Derivatives and Its Therapeutic Effect on Colitis by Targeting Pyruvate Carboxylase” (J Med Chem, 2024).

The nature of data set [1]: Tmax in ICR mouse at 15 mg/kg, IG measured for 12 hrs by LC-MS/MS analysis. Type of data set: ADME, organism-based. Conditions: in vivo, po.
Data set [2] concerns THP-1. Kind of data set: cells. The note with it: Homo sapiens, THP-1, 24 h.
Data set [3] can be described thus: MRT (0 to t) in ICR mouse at 15 mg/kg, IG measured for 12 hrs by LC-MS/MS analysis. Type of data set: ADME, organism-based. The note with it: in vivo, po.
The nature of data set [4]: MRT (0 to t) in colon of ICR mouse at 15 mg/kg, IG measured for 12 hrs by LC-MS/MS analysis. Type of data set: ADME, organism-based. The note with it: po.
A short description of data set [5]: AUC (0 to t) in colon of ICR mouse at 15 mg/kg, IG measured for 12 hrs by LC-MS/MS analysis. Type of data set: ADME, organism-based. Conditions: po.
The nature of data set [6]: Cmax in ICR mouse at 15 mg/kg, IG measured for 12 hrs by LC-MS/MS analysis. The note with it: in vivo, po. Format: ADME, organism-based.
Data set [7] can be described thus: AUC (0 to t) in ICR mouse at 15 mg/kg, IG measured for 12 hrs by LC-MS/MS analysis. Format: ADME, organism-based. The note with it: in vivo, po.
Data set [8] is described as follows: Cmax in colon of ICR mouse at 15 mg/kg, IG measured for 12 hrs by LC-MS/MS analysis. Type of data set: ADME, organism-based. Conditions: po.
Data set [9] can be described thus: Half life in ICR mouse at 15 mg/kg, IG measured for 12 hrs by LC-MS/MS analysis. Type of data set: ADME, organism-based. Conditions: in vivo, po, 15 mg/kg, 12 h.
Data set [10] in a line: Tmax in colon of ICR mouse at 15 mg/kg, IG measured for 12 hrs by LC-MS/MS analysis. Type of data set: ADME, organism-based. The note with it: po.
A short description of data set [11]: Half life in colon of ICR mouse at 15 mg/kg, IG measured for 12 hrs by LC-MS/MS analysis. Format: ADME, organism-based. Conditions: po.
For data set [12], the system named is Mus musculus. As to the kind of experiment: Anti-colitis activity in ICR mouse model assessed as decrease in DSS-induced body weight loss at 400 mg/kg, IG treated for 9 days consecutively. Type of data set: functional, organism-based. Conditions: time 9.0 day.
Data set [13] concerns Mus musculus. Kind of data set: Anti-colitis activity in ICR mouse model assessed as reversal of DSS-induced spleen weight at 400 mg/kg, IG treated for 9 days consecutively. Type of data set: functional, organism-based. The note with it: time 9.0 day.
Data set [14] deals with Mus musculus. Kind of data set: Anti-colitis activity in ICR mouse model assessed as reversal of DSS-induced splenomegaly at 400 mg/kg, IG treated for 9 days consecutively. Type of data set: functional, organism-based. Conditions: time 9.0 day.
Data set [15] deals with Mus musculus. As to the kind of experiment: Anti-colitis activity in ICR mouse model assessed as reversal of DSS-induced colon shortening administered intragastrically for 9 days consecutively. Format: functional, organism-based. The note with it: route ig, time 9.0 day.
The test system of data set [16] is Mus musculus. As to the kind of experiment: Anti-colitis activity in ICR mouse model of DSS-induced colitis assessed as decrease in DAI score at 400 mg/kg, IG treated for 9 days consecutively. Format: functional, organism-based. Conditions: time 9.0 day.
Data set [17] relates to THP-1. Kind of data set: Anti-inflammatory activity in LPS-treated human THP-1 cells assessed as decrease in phosphorylated I-kappaB-alpha level at 10 uM pretreated for 1 hr followed by LPS treatment for 6 hrs by Western blot analysis. Format: functional, cell-based. The note with it: time 7.0 hrs. (In general: A western blot detects proteins with antibodies after separation by electrophoresis.)

Data set [18] deals with T1, Pyruvate carboxylase, mitochondrial (Homo sapiens, UniProt P11498).
T1 sequence (P11498 whole entry): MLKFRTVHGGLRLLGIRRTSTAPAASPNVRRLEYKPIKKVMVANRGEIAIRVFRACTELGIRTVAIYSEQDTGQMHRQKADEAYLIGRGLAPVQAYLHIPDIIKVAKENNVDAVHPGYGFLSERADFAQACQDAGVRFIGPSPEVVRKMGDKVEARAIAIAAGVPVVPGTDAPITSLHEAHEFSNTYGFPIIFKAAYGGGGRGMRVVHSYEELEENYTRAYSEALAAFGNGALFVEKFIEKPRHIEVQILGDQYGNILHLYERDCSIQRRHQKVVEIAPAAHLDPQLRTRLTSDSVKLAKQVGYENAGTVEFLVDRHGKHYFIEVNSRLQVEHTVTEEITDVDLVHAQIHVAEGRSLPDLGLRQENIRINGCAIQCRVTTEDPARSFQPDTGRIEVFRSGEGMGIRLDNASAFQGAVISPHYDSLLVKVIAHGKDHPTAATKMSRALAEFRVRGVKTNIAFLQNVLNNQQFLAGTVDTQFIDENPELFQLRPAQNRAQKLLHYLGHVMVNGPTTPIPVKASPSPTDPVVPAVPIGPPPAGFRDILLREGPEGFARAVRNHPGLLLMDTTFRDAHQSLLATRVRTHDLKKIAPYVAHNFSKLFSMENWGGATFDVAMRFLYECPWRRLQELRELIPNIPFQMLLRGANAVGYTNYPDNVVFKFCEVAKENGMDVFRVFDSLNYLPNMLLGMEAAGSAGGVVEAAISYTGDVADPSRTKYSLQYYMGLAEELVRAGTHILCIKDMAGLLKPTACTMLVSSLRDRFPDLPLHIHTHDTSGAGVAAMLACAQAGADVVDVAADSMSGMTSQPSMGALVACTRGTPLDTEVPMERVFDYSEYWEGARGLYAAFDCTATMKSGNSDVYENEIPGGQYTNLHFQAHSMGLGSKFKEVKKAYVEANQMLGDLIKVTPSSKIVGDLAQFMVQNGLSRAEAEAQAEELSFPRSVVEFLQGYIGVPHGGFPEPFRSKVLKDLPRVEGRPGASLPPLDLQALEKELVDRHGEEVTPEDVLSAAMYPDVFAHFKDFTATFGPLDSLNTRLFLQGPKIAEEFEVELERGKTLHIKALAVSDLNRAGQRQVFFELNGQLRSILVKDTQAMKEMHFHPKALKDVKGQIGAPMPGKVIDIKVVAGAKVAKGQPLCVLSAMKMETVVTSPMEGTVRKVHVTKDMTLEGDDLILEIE
As to the kind of experiment: Inhibition of pyruvate carboxylase (unknown origin) by NADH-malate dehydrogenase based spectrophotometry.

For data set [19], the system named is Mus musculus. As to the kind of experiment: Anti-colitis activity in DSS-induced colitis mouse model at 20 to 40 mg/kg. Type of data set: functional, organism-based. Conditions: dose 20-40 mg/kg.

Activity calls are given as the source filed them. The calls are words filed in the database; no cut-off is given here. Where only a bound is given, the exact number is not on record here.

In the case of `C=C(C)[C@@H]1CC[C@]2(C(=O)O[C@@H]3O[C@H](CO[C@@H]4O[C@H](CO)[C@@H](O[C@@H]5O[C@@H](C)[C@H](O)[C@@H](O)[C@H]5O)[C@H](O)[C@H]4O)[C@@H](O)[C@H](O)[C@H]3O)CC[C@]3(C)[C@H](CC[C@@H]4[C@@]5(C)CC[C@H](O[C@@H]6OC[C@H](O)[C@H](O)[C@H]6O[C@@H]6O[C@@H](C)[C@H](O)[C@@H](O)[C@H]6O)[C@@](C)(CO)[C@@H]5CC[C@]43C)[C@@H]12`, the Tmax (as a rule, the time from dosing to the highest level) in [1] stood at 27.6 min; in data set [10], 1.92 h. Besides, the half-maximal inhibitory concentration (IC50) (usually the concentration needed to halve the response being measured) in [2] was ≥ 80 µM. Further, the values for the MRT last at 12 h in [3] and in data set [4] were 5.13 h and 4.38 h, respectively. Further, in data set [5], the AUC(0-t) (in general, the area under the concentration-time curve up to a stated or last time point) at 12 h worked out at 30.2 ng·h/mL. Moreover, the peak concentration (Cmax) – broadly, the highest concentration seen after dosing – in [6] turned out to be 0.58 ng/mL; in data set [8] it was 7.12 ng/mL. In data set [7], this compound showed an AUCt of 2.46 ng·h/mL. In [9], this compound returned a t1/2 of 4.74 h. Further, the half-life (as a rule, the time in which the quantity being followed falls by half) in [11] was 279 min.

`Nc1ccc(O)c(C(=O)O)c1`: the outcome in data set [12], in data set [13], in [14] and in [16] was Active. In addition, in data set [15], the Activity entry is “Dose-Dependent Effect”.

On to `C=C(C)[C@@H]1CC[C@]2(C(=O)NCCCNC(=O)OC(C)(C)C)CC[C@]3(C)[C@H](CC[C@@H]4[C@@]5(C)CC[C@H](O[C@@H]6OC[C@H](O)[C@H](O)[C@H]6O[C@@H]6O[C@@H](C)[C@H](O)[C@@H](O)[C@H]6O)[C@@](C)(CO)[C@@H]5CC[C@]43C)[C@@H]12`, for which the IC50 in data set [2] is ≥ 80 µM. In data set [17], the outcome was Active.

For `C=C(C)[C@@H]1CC[C@]2(C(=O)NC)CC[C@]3(C)[C@H](CC[C@@H]4[C@@]5(C)CC[C@H](O[C@@H]6OC[C@H](O)[C@H](O)[C@H]6O[C@@H]6O[C@@H](C)[C@H](O)[C@@H](O)[C@H]6O)[C@@](C)(CO)[C@@H]5CC[C@]43C)[C@@H]12`, the IC50 in data set [2] is ≥ 80 µM; in data set [18], > 1000 nM.

Consider `C=C(C)[C@@H]1CC[C@]2(C(=O)NCCCCCCCC(=O)OCC)CC[C@]3(C)[C@H](CC[C@@H]4[C@@]5(C)CC[C@H](O[C@@H]6OC[C@H](O)[C@H](O)[C@H]6O[C@@H]6O[C@@H](C)[C@H](O)[C@@H](O)[C@H]6O)[C@@](C)(CO)[C@@H]5CC[C@]43C)[C@@H]12`, for which the IC50 in data set [2] was ≥ 80 µM; in [18] it was > 1000 nM.

With `C=C(C)[C@@H]1CC[C@]2(C(=O)O)CC[C@]3(C)[C@H](CC[C@@H]4[C@@]5(C)CC[C@H](O[C@@H]6OC[C@H](O)[C@H](O)[C@H]6O[C@@H]6O[C@@H](C)[C@H](O)[C@@H](O)[C@H]6O)[C@@](C)(CO)[C@@H]5CC[C@]43C)[C@@H]12`, the figures for the IC50 in data set [2] and in data set [18] were ≥ 80 µM and > 10000 nM, respectively. Besides, the result in data set [19] was inactive.

Take `C=C(C)CNC(=O)[C@]12CC[C@@H](C(=C)C)[C@@H]1[C@H]1CC[C@@H]3[C@@]4(C)CC[C@H](O[C@@H]5OC[C@H](O)[C@H](O)[C@H]5O[C@@H]5O[C@@H](C)[C@H](O)[C@@H](O)[C@H]5O)[C@@](C)(CO)[C@@H]4CC[C@@]3(C)[C@]1(C)CC2`: the IC50 in data set [2] is ≥ 80 µM; in [18] it was > 1000 nM.

Turning to `C=C(C)[C@@H]1CC[C@]2(C(=O)NCCCCCC(=O)OCC(=O)[C@@]3(O)[C@H](C)C[C@H]4C5CCC6=CC(=O)C=C[C@]6(C)[C@@]5(F)[C@@H](O)C[C@@]43C)CC[C@]3(C)[C@H](CC[C@@H]4[C@@]5(C)CC[C@H](O[C@@H]6OC[C@H](O)[C@H](O)[C@H]6O[C@@H]6O[C@@H](C)[C@H](O)[C@@H](O)[C@H]6O)[C@@](C)(CO)[C@@H]5CC[C@]43C)[C@@H]12` (some centres undefined), the IC50 was ≥ 80 µM in data set [2] and > 1000 nM in data set [18].
